Experimental data as given in patent publication US5458874A, “Method of increasing monocyte chemotaxis with CAP37 and monocyte chemotactic portions thereof” (Emory University, priority 1992, dated 1995).
“Also recorded” adds a separate entry of the source. Read-outs that look alike come from different tables or passages of the source.

How the values were obtained:
[1] = test system: Salmonella typhimurium SH9178; assay: Bactericidal assay; type: cell-based; conditions: for bactericidal effect on Salmonella typhimurium SH9178 (in words): FIGS. 12, 13, 15, 1 hour at 37° C.; for % survival with peptide 20-44: Salmonella SH9178
Protocol: (§1) An overnight culture of Salmonella typhimurium (or other microorganism of interest, if desired) is set up by inoculating one colony in 5 ml of LB Broth (LB Broth consists of 10 g BACTO tryptone (DIFCO), 5 g BACFO yeast (DIFCO) and 5 g NaCl made up to 1 L with endotoxin free water; add 15 g of BACTO agar (DIFCO) to this broth to make LB agar (autoclave). The culture is incubated at 37° C. with rotation. 100 μl of this overnight culture is then transferred to 5 ml of fresh LB Broth and incubated at 37° C. with rotation for 2 hours. Four ml of this log phase culture is then transferred to a sterile cuvette and the optical density is read at […]. Dilutions of the microorganism are then made in tryptone saline (5 g BAOTO tryptone (DIFCO) and 5 g NaCl made up to 1 L with endotoxin free water, pH 5.5) to give a final concentration of 5×10^3 organisms/ml (an O.D. reading of 0.25 at 520 mm is equivalent to 1×10^8 organisms/ml). The microorganisms are placed at 4° C. until ready to be used.
(§2) The stock solutions of peptides are stored at -20° C. at concentrations of 1 mg/ml of endotoxin-free water. The peptide is diluted out in tryptone saline to the desired concentration. 100 μl of the peptide is added to each well of the microtitre plate (Corning) and then 100 μl of the bacterial suspension (well vortexed) is added. Each assay point is set up in triplicate. 100 μl of a control, consisting of bacteria and tryptone saline (T=0) in the absence of peptide is plated out on LB agar plates. The microliter plate is then incubated at 37° C. for 1 hour. At the end of the incubation time, 100 μl of each sample is plated out on LB agar plates. The T=60 control (consisting of bacteria and tryptone saline in the absence of peptide) is plated out last. The plates are incubated overnight, and the number of colony forming units (CFU) are determined.
(§3) The % killed is determined as follows: [formula]

human monocytes = assay: Monocyte chemotaxis, modified Boyden chamber technique; type: cell-based; conditions: chemoattractant conc. 10^-8 M
Protocol: Chemotaxis was measured using the modified Boyden chamber technique (Snyderman et al.). The leading front method (Zigmond et al.) was used to assess migration of monocytes and lymphocytes through a 8 μm filter (Millipore Corporation, Bedford, Mass.). PMN chemotaxis was measured using a 3 μm filter (Millipore). The purified CAP37 protein (Example 1) used in chemotaxis assays were endotoxin-free as determined by the Limulus Amoebocyte Lysate Assay (Whittaker Bioproducts, Inc., Walkersville, Md.). The dilutions of CAP37 and N-formyl-methionyl-leucyl-phenylalanine (FMLP) were made in Geys buffer (Gibco) containing 2% endotoxin-free bovine serum albumin (BSA). Geys buffer containing 2% BSA served as the negative control, and a […] solution of FMLP as the positive control.
The chambers were incubated in a humidified atmosphere (6.2% CO2) for 2 hours when testing monocytes and lymphocytes, and for 30 minutes when testing PMNs. The filters were then removed and processed as previously described (Snyderman et al.). The cells were viewed using oil immersion and the distance the cells had migrated into the filter was determined over five different fields on the same slide (Zigmond et al.). Triplicate assays were performed for each experimental point.
The three peptides were tested for chemotactic activity towards monocytes using the modified Boyden Chamber technique described in Example 2. The monocyte chemotactic activity of each peptide fragment at concentrations ranging from 10^-7 to 10^-13 M was compared with Geys buffer (negative control), FMLP 10^-8 M (positive control) and purified CAP37 10^-9 M (positive control). […] The effect of peptide 1 on monocyte chemotaxis is illustrated in Table 2 while the effect of peptide 3 on monocyte chemotaxis is illustrated in Table 3.

E. coli = assay: Bactericidal assay; type: cell-based, Escherichia coli
Protocol: as §1, §2, §3

[2] = test system: Salmonella typhimurium SH9178; assay: Inhibition of the bactericidal effect by LPS and Lipid A; type: cell-based; conditions: peptide at 200 μg/ml, FIG. 16
Protocol: To identity, those peptides derived from CAP37 having bacterial LPS-binding activity, the peptide fragments having bactericidal activity were tested to ascertain whether LPS or Lipid A inhibited that activity.

wild type LPS = assay: Neutralization of LPS activity, limulus amebocyte lysate (LAL) assay, wild type LPS; type: biochemical
Protocol: (§4) Further, the neutralization of LPS activity, as assayed by the limulus amebocyte lysate (LAL) assay, by CAP37 was measured. CAP37 was diluted to the desired concentrations (from 6.2 ng/ml to 500 ng/ml) in geys buffered saline pH 7 (GIBCO). To this wild type LPS (RIBI IMMUNOCHEM) or Re LPS from Salmonella (David Morrison, Kansas Medical Center) was added so that the final concentrations were 0.1, 0.5, 1.0 and 2.0 ng/ml LPS. The tubes were incubated at 37° C. for between 30 to 60 minutes and then assayed in the chromogenic LAL assay, using polymyxin E as a control.
(§5) As discussed in Example 11, peptides can be screened for lipopolysaccharide neutralizing capacity using the LAL assay also. The CAP37 peptide was diluted to the desired concentrations (from 125 ng/ml to 4000 ng/ml) in geys buffered saline pH 7 (GIBCO). To this is added the wild type LPS (RIBI IMMUNOCHEM) or Re LPS from Salmonella (David Morrison, Kansas Medical Center) so that the final concentration is 0.1, 0.5, and 1.0 ng/ml LPS. The tubes were incubated at 37° C. for between 30 to 60 minutes and then assayed in the chromogenic LAL assay.

L monocytogenes = assay: Bactericidal assay; type: cell-based, Listeria monocytogenes
Protocol: as §1
(§6) The stock solutions of peptides are stored at -20° C. at concentrations of 1 mg/ml of endotoxin-free water. The peptide is diluted out in tryptone saline to the desired concentration. […] The plates are incubated overnight, and the number of colony forming units (CFU) are determined.
as §3

E. faecalis = assay: Bactericidal assay; type: cell-based, Enterococcus faecalis
Protocol: as §1, §2, §3

Re LPS from Salmonella = assay: Neutralization of LPS activity, limulus amebocyte lysate (LAL) assay, Re LPS; type: biochemical
Protocol: as §4, §5

Strep. pyogenes = assay: Bactericidal assay; type: cell-based, Streptococcus pyogenes
Protocol: as §1, §6, §3

P. mirabilis Re45 = assay: Bactericidal assay; type: cell-based, Proteus mirabilis; conditions: for % survival with peptide 20-44: P. mirabilis Re45
Protocol: as §1, §2, §3

Ps. aeruginosa = assay: Bactericidal assay; type: cell-based, Pseudomonas aeruginosa; conditions: for % survival with peptide 20-44: Ps. aeruginosa; for bactericidal activity (in words): Pseudomonas
Protocol: as §1, §2, §3

[3] = test system: gram negative and gram positive bacteria; assay: Bactericidal assay, assortment of bacteria (FIG. 14); type: cell-based
Protocol: as §1, §6, §3

Salmonella LT2 = assay: Bactericidal assay; type: cell-based, Salmonella typhimurium; conditions: for % survival with peptide 20-44: Salmonella LT2; for bactericidal activity (in words): Salmonella typhimurium LT2
Protocol: as §1, §2, §3

Salmonella SH7518 = assay: Bactericidal assay; type: cell-based, Salmonella typhimurium; conditions: for % survival with peptide 20-44: Salmonella SH7518
Protocol: as §1, §2, §3

Salmonella SH7426 = assay: Bactericidal assay; type: cell-based
Protocol: as §1, §2, §3

S. aureus 502A = assay: Bactericidal assay; type: cell-based, Staphylococcus aureus
Protocol: as §1, §6, §3

1-44aa: synthesized peptide fragment, amino acids 1-44 of the mature CAP37 protein (IVGGRKARPRQFPFLASIQNQGRHFCGGALIHARFVMTAASCFQ; UniProt P20160 27-70, looked up, fragment)
bactericidal effect on Salmonella typhimurium SH9178 (in words) [1]: active but not to the same extent as peptide 20-44aa

26-42aa: synthesized peptide fragment, amino acids 26-42 of the mature CAP37 protein (CGGALIHARFVMTAASC; UniProt P20160 52-68, looked up, fragment)
bactericidal effect on Salmonella typhimurium SH9178 (in words) [1]: minimal activity

CSCC[C@H](NC=O)C(=O)N[C@@H](CC(C)C)C(=O)N[C@@H](Cc1ccccc1)C(=O)O [FMLP, N-formyl-methionyl-leucyl-phenylalanine, reference compound]
Distance migrated in μm (human monocytes; Table 2): 86.2 μm | Distance migrated in μm (human monocytes; Table 3): 91.4 μm

peptide 20-44aa: synthesized peptide fragment, amino acids 20-44 of the mature CAP37 protein (NQGRHFCGGALIHARFVMTAASCFQ)
bactericidal activity (in words) (E. coli): more active | % survival with peptide 20-44 (E. coli; 50 uM): 24.6% | % survival with peptide 20-44 (E. coli; 75 uM): 0% | bactericidal activity (in words) (E. coli; listed as CAP37 peptide 20-44): most active | inhibition of the bactericidal effect by wild type LPS and Lipid A [2]: wild type LPS, but more particularly Lipid A, can inhibit the bactericidal effect | neutralization of wild type LPS activity (LAL assay) (wild type LPS): neutralizing its effect to a certain extent | % survival with peptide 20-44 (L monocytogenes; 50 uM): 65.8% | % survival with peptide 20-44 (L monocytogenes; 75 uM): 64.6% | bactericidal activity (in words) (E. faecalis): more active | % survival with peptide 20-44 (E. faecalis; 50 uM): 16.1% | % survival with peptide 20-44 (E. faecalis; 75 uM): 0% | bactericidal activity (in words) (E. faecalis; listed as CAP37 peptide 20-44): most active | neutralization of Re LPS activity (LAL assay) (Re LPS from Salmonella): more dramatic | % survival with peptide 20-44 (Strep. pyogenes; 50 uM): 93.4% | % survival with peptide 20-44 (Strep. pyogenes; 75 uM): 78% | % survival with peptide 20-44 (P. mirabilis Re45; 50 uM): 26.8% | % survival with peptide 20-44 (P. mirabilis Re45; 75 uM): 29% | bactericidal activity (in words) (P. mirabilis Re45; Pr. mirabilis Re45): more active | % survival with peptide 20-44 (Ps. aeruginosa; 50 uM): 0% | % survival with peptide 20-44 (Ps. aeruginosa; 75 uM): 0% | bactericidal activity (in words) (Ps. aeruginosa): more active | bactericidal activity (in words) (Ps. aeruginosa; listed as CAP37 peptide 20-44): most active | antibacterial activity against gram negative and gram positive bacteria (in words) [3]: active against a wide assortment of bacteria | antibacterial activity against gram negative and gram positive bacteria (in words) ([3]; listed as peptide 20-14aa): active against many other bacteria | % survival with peptide 20-44 (Salmonella LT2; 50 uM): 28.5% | % survival with peptide 20-44 (Salmonella LT2; 75 uM): 1.7% | bactericidal activity (in words) (Salmonella LT2): more active | bactericidal activity (in words) (Salmonella LT2; listed as CAP37 peptide 20-44): most active | % survival with peptide 20-44 (Salmonella SH7518; 50 uM): 0.6% | % survival with peptide 20-44 (Salmonella SH7518; 75 uM): 0% | bactericidal activity (in words) (Salmonella SH7518; Salmonella typhimurium SH7518): most active | % survival with peptide 20-44 (Salmonella SH7426; 50 uM): 62.5% | % survival with peptide 20-44 (Salmonella SH7426; 75 uM): 31.9% | % survival with peptide 20-44 ([1]; 50 uM): 36.9% | % survival with peptide 20-44 ([1]; 75 uM): 3.5% | bactericidal activity compared with cathepsin G and elastase peptides ([1]; 100 and 125 μM, FIG. 15): very much more bactericidal | bactericidal effect on Salmonella typhimurium SH9178 (in words) [1]: most potent antibiotic of these peptides; also recorded: Strongest activity; also recorded: extremely active | bactericidal effect on Salmonella typhimurium SH9178 (in words) ([1]; listed as CAP37 peptide 20-44): most active | % survival with peptide 20-44 (S. aureus 502A; 50 uM): 58.7% | % survival with peptide 20-44 (S. aureus 502A; 75 uM): 27.5%
